Measured values published in PubChem BioAssay AID248 (DTP/NCI, 2004).
Several values for one entry are separate records, joined by “and”; a condition that tells them apart may be missing. Identical values can stand only once. Inconclusive results and toxic doses are left out.

Tested on: L1210 leukemia ip in BDF1 mice, survival T/C
Assay: NCI In Vivo Anticancer Drug Screen. Data for tumor model L1210 Leukemia (intraperitoneal) in B6D2F1 (BDF1) mice
Details: endpoint: mean survival time, higher = longer survival
In short: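 Survival endpoint. Drug-treated group vs vehicle group, expressed as T divided by C. Tumor passaged by transplantation.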

[1] = dose: 100.0 mg/kg/injection, schedule: Q01DX009 (ip), vehicle: saline with Tween-80
[2] = dose: 100.0 mg/kg/injection, schedule: Q04DX002 (ip), vehicle: saline with Tween-80
[3] = dose: 200.0 mg/kg/injection, schedule: Q01DX009 (ip), vehicle: saline with Tween-80
[4] = dose: 400.0 mg/kg/injection, schedule: Q01DX009 (ip), vehicle: saline with Tween-80
[5] = dose: 100.0 mg/kg/injection, schedule: Q04DX003 (ip), vehicle: saline
[6] = dose: 200.0 mg/kg/injection, schedule: Q04DX003 (ip), vehicle: saline
[7] = dose: 400.0 mg/kg/injection, schedule: Q04DX003 (ip), vehicle: saline
[8] = dose: 100.0 mg/kg/injection, schedule: Q01DX009 (ip), vehicle: Klucel (hydroxypropylcellulose) (HPC)
[9] = dose: 200.0 mg/kg/injection, schedule: Q01DX009 (ip), vehicle: Klucel (hydroxypropylcellulose) (HPC)
[10] = dose: 400.0 mg/kg/injection, schedule: Q01DX009 (ip), vehicle: Klucel (hydroxypropylcellulose) (HPC)
[11] = dose: 100.0 mg/kg/injection, schedule: Q04DX003 (ip), vehicle: saline with Tween-80
[12] = dose: 200.0 mg/kg/injection, schedule: Q04DX003 (ip), vehicle: saline with Tween-80
[13] = dose: 400.0 mg/kg/injection, schedule: Q04DX003 (ip), vehicle: saline with Tween-80
[14] = dose: 100.0 mg/kg/injection, schedule: Q01DX001 (ip), vehicle: saline
[15] = dose: 200.0 mg/kg/injection, schedule: Q01DX001 (ip), vehicle: saline
[16] = dose: 400.0 mg/kg/injection, schedule: Q01DX001 (ip), vehicle: saline

## CCCCCCC(=O)N(CCC)CCC
dose: 100.0 mg/kg/injection, schedule: Q01DX001 (ip), vehicle: carboxymethylcellulose (CMC)
  T/C: 112 % of control
dose: 100.0 mg/kg/injection, schedule: Q01DX009 (ip), vehicle: carboxymethylcellulose (CMC)
  T/C: 98 % of control and 100 % of control
dose: 100.0 mg/kg/injection, schedule: Q04DX003 (ip), vehicle: carboxymethylcellulose (CMC)
  T/C: 97 % of control
dose: 200.0 mg/kg/injection, schedule: Q01DX001 (ip), vehicle: carboxymethylcellulose (CMC)
  T/C: 102 % of control
dose: 200.0 mg/kg/injection, schedule: Q01DX009 (ip), vehicle: carboxymethylcellulose (CMC)
  T/C: 97 % of control and 104 % of control
dose: 200.0 mg/kg/injection, schedule: Q04DX003 (ip), vehicle: carboxymethylcellulose (CMC)
  T/C: 98 % of control

## CC1(C)S[C@@H]2[C@H](NC=O)C(=O)N2[C@H]1C(=O)OCc1ccccc1
dose: 75.0 mg/kg/injection, schedule: Q01DX001 (ip), vehicle: carboxymethylcellulose (CMC)
  T/C: 90 % of control
dose: 150.0 mg/kg/injection, schedule: Q01DX001 (ip), vehicle: carboxymethylcellulose (CMC)
  T/C: 86 % of control

## CCOC(=O)CC(C)C(Br)(C(=O)OCC)C(=O)OCC (configuration not stated)
dose: 25.0 mg/kg/injection, schedule: Q01DX009 (ip), vehicle: water
  T/C: 109 % of control
dose: 50.0 mg/kg/injection, schedule: Q01DX009 (ip), vehicle: water
  T/C: 111 % of control
dose: 100.0 mg/kg/injection, schedule: Q01DX009 (ip), vehicle: water
  T/C: 100 % of control
dose: 200.0 mg/kg/injection, schedule: Q01DX009 (ip), vehicle: water
  T/C: 96 % of control

## CC1S(=O)(=O)CC(NC(=O)N(CCCl)N=O)CS1(=O)=O (configuration not stated)
dose: 3.5 mg/kg/injection, schedule: Q01DX001 (ip), vehicle: saline with Tween-80
  T/C: 159 % of control
dose: 5.3 mg/kg/injection, schedule: Q01DX001 (ip), vehicle: saline with Tween-80
  T/C: 172 % of control and 208 % of control
dose: 8.0 mg/kg/injection, schedule: Q01DX001 (ip), vehicle: saline with Tween-80
  T/C: 278 % of control and 309 % of control
dose: 12.0 mg/kg/injection, schedule: Q01DX001 (ip), vehicle: saline with Tween-80
  T/C: 357 % of control [middle of 4 runs]
dose: 18.0 mg/kg/injection, schedule: Q01DX001 (ip), vehicle: saline with Tween-80
  T/C: 324 % of control and 421 % of control
dose: 26.0 mg/kg/injection, schedule: Q01DX001 (ip), vehicle: saline with Tween-80
  T/C: 444 % of control and 458 % of control
dose: 40.0 mg/kg/injection, schedule: Q01DX001 (ip), vehicle: saline with Tween-80
  T/C: 516 % of control and 442 % of control
dose: 60.0 mg/kg/injection, schedule: Q01DX001 (ip), vehicle: saline with Tween-80
  T/C: 421 % of control and 156 % of control
dose: 90.0 mg/kg/injection, schedule: Q01DX001 (ip), vehicle: saline with Tween-80
  T/C: 252 % of control and 258 % of control
dose: 135.0 mg/kg/injection, schedule: Q01DX001 (ip), vehicle: saline with Tween-80
  T/C: 116 % of control

## CCOC(=O)C(C(=O)OCC)C(C)c1ccc([N+](=O)[O-])cc1 (configuration not stated)
[1]
  T/C: 106 % of control
[2]
  T/C: 100 % of control
[3]
  T/C: 106 % of control
dose: 200.0 mg/kg/injection, schedule: Q04DX002 (ip), vehicle: saline with Tween-80
  T/C: 103 % of control
[4]
  T/C: 113 % of control
dose: 400.0 mg/kg/injection, schedule: Q04DX002 (ip), vehicle: saline with Tween-80
  T/C: 92 % of control

## COc1ccc(Oc2cccc3cnccc23)cc1
dose: 100.0 mg/kg/injection, schedule: Q04DX002 (ip), vehicle: Klucel (hydroxypropylcellulose) (HPC)
  T/C: 102 % of control
dose: 200.0 mg/kg/injection, schedule: Q04DX002 (ip), vehicle: Klucel (hydroxypropylcellulose) (HPC)
  T/C: 91 % of control
dose: 400.0 mg/kg/injection, schedule: Q04DX002 (ip), vehicle: Klucel (hydroxypropylcellulose) (HPC)
  T/C: 94 % of control

## CN1CCCC1c1ccc(Br)cc1 (configuration not stated)
dose: 100.0 mg/kg/injection, schedule: Q01DX001 (ip), vehicle: acetone
  T/C: 95 % of control

## CC(=O)CC(=O)NCc1cccc(C)n1
[5]
  T/C: 114 % of control
[6]
  T/C: 98 % of control
[7]
  T/C: 103 % of control

## CCOC(=O)CNC(=O)Nc1cc(OC)ccc1OC
[1]
  T/C: 96 % of control
[3]
  T/C: 95 % of control
[4]
  T/C: 100 % of control

## CCCCC#C/C(C)=N\Nc1ccc([N+](=O)[O-])cc1[N+](=O)[O-]
dose: 50.0 mg/kg/injection, schedule: Q04DX002 (ip), vehicle: saline with Tween-80
  T/C: 98 % of control
[2]
  T/C: 173 % of control

## COc1ccc(Cl)cc1NC(=O)Nc1cccc(C(C)=O)c1
[8]
  T/C: 102 % of control
[9]
  T/C: 93 % of control
[10]
  T/C: 90 % of control

## Cc1ccc(S(=O)(=O)Nc2ccc(C(=O)O)c(Cl)c2)cc1
[11]
  T/C: 108 % of control
[12]
  T/C: 92 % of control
[13]
  T/C: 104 % of control

## O=C(CNC(=O)c1ccccc1)Nc1ccc([N+](=O)[O-])cc1
[14]
  T/C: 100 % of control
[15]
  T/C: 100 % of control
[16]
  T/C: 94 % of control

## O=C(OCCC/C(=C\c1cc2ccccc2c2ccccc12)[N+](=O)[O-])c1ccccc1
dose: 100.0 mg/kg/injection, schedule: Q01DX001 (ip), vehicle: other
  T/C: 87 % of control
dose: 200.0 mg/kg/injection, schedule: Q01DX001 (ip), vehicle: other
  T/C: 92 % of control
dose: 400.0 mg/kg/injection, schedule: Q01DX001 (ip), vehicle: other
  T/C: 91 % of control

## CC1CN1C(=O)Nc1ccc(Cl)cc1 (configuration not stated)
dose: 25.0 mg/kg/injection, schedule: Q04DX002 (ip), vehicle: other
  T/C: 116 % of control
dose: 50.0 mg/kg/injection, schedule: Q04DX002 (ip), vehicle: other
  T/C: 100 % of control
dose: 100.0 mg/kg/injection, schedule: Q04DX002 (ip), vehicle: other
  T/C: 97 % of control and 91 % of control

## C[N+](C)(C)c1ccc(/C=N\O)cc1
dose: 6.25 mg/kg/injection, schedule: Q04DX003 (ip), vehicle: saline
  T/C: 95 % of control
dose: 12.5 mg/kg/injection, schedule: Q04DX003 (ip), vehicle: saline
  T/C: 102 % of control

## Nc1ccc(SCc2nc3cccc4c3n2CCC4)cc1
[1]
  T/C: 88 % of control
[11]
  T/C: 96 % of control
[3]
  T/C: 96 % of control
[12]
  T/C: 94 % of control
[4]
  T/C: 105 % of control
[13]
  T/C: 92 % of control

## CCC(=O)c1cc(O)ccc1O
dose: 100.0 mg/kg/injection, schedule: Q04DX003 (ip), vehicle: other
  T/C: 93 % of control
dose: 200.0 mg/kg/injection, schedule: Q04DX003 (ip), vehicle: other
  T/C: 98 % of control

## CCCCCCCCCCCCSC(=S)N(CC)CC
dose: 87.5 mg/kg/injection, schedule: Q01DX009 (ip), vehicle: other
  T/C: 89 % of control
dose: 175.0 mg/kg/injection, schedule: Q01DX009 (ip), vehicle: other
  T/C: 93 % of control
dose: 350.0 mg/kg/injection, schedule: Q01DX009 (ip), vehicle: other
  T/C: 97 % of control

## CC(=O)C1CCCC23CC(CC12)C(C)(C)C3OC=O (configuration not stated)
[8]
  T/C: 96 % of control
dose: 100.0 mg/kg/injection, schedule: Q04DX003 (ip), vehicle: Klucel (hydroxypropylcellulose) (HPC)
  T/C: 90 % of control
[9]
  T/C: 100 % of control
dose: 200.0 mg/kg/injection, schedule: Q04DX003 (ip), vehicle: Klucel (hydroxypropylcellulose) (HPC)
  T/C: 92 % of control
[10]
  T/C: 107 % of control
dose: 400.0 mg/kg/injection, schedule: Q04DX003 (ip), vehicle: Klucel (hydroxypropylcellulose) (HPC)
  T/C: 95 % of control

## CC(=O)OC1COC(n2cnc3c(=S)nc(N)[nH]c32)C(OC(C)=O)C1OC(C)=O (configuration not stated)
[14]
  T/C: 100 % of control
[15]
  T/C: 97 % of control
[16]
  T/C: 97 % of control

## CCCN(CCC)CCC(=O)O
dose: 100.0 mg/kg/injection, schedule: Q01DX009 (ip), vehicle: saline
  T/C: 100 % of control
[5]
  T/C: 97 % of control
dose: 200.0 mg/kg/injection, schedule: Q01DX009 (ip), vehicle: saline
  T/C: 96 % of control
[6]
  T/C: 108 % of control
dose: 400.0 mg/kg/injection, schedule: Q01DX009 (ip), vehicle: saline
  T/C: 102 % of control
[7]
  T/C: 101 % of control

## O=[N+]([O-])c1ccc[nH]1
[5]
  T/C: 98 % of control

## CC[n+]1ccc2cc(OC)c(OC)cc2c1Cc1ccc(OC)c(OC)c1
dose: 25.0 mg/kg/injection, schedule: Q01DX009 (ip), vehicle: saline
  T/C: 94 % of control
dose: 50.0 mg/kg/injection, schedule: Q01DX009 (ip), vehicle: saline
  T/C: 115 % of control
[5]
  T/C: 98 % of control
